Test results from EP0930067A2, “MMP inhibitors for the treatment of ocular angiogenesis” (Pfizer Products Inc., priority 1997, dated 1999).

System: angiogenesis
Experiment: Inhibition of angiogenesis: in vivo rat model, pellet with angiogenic material (VEGF) and MMP inhibitor, corneal neovascularization scored after one week
Conditions: pellet implant
Experimental: Inhibition of Angiogenesis
The activity of MMP inhibitors, preferably MMP-2 or MMP-9 inhibitors, for inhibiting angiogenesis can be determined according to the following in vivo rat model. A 10µg pellet containing an angiogenic material, such as vascular endothelial growth factor (VEGF) and a matrix metalloproteinase inhibitor or placebo, is implanted intraorbitally. After one week the eyes are removed and the degree of inhibition of angiogenesis is determined qualitatively. Inhibitors with IC50's of less than 10nm reduced angiogenesis. […]

## O=C(NO)C1C2CCC(O2)C1S(=O)(=O)c1ccc(Oc2ccccc2)cc1 (stereo not drawn) [3-(4-Phenoxy-benzenesulfonyl)-7-oxa-bicyclo[2.2.1]heptane-2-carboxylic acid hydroxyamide]
10ng + VEGF
  % Response: 25%
  Corneal Neovascularization (#Positive Response/#Response): 4/4
25ng + VEGF
  % Response: 60%
  Corneal Neovascularization (#Positive Response/#Response): 3/5
50ng + VEGF
  % Response: 40%
  Corneal Neovascularization (#Positive Response/#Response): 2/5
100ng + VEGF
  % Response: 20%
  Corneal Neovascularization (#Positive Response/#Response): 1/5

## O=C(O)CCN(C1(C(=O)NO)CCCC1)S(=O)(=O)c1ccc(Oc2ccc(F)cc2)cc1 [3-[[4-(4-Fluoro-phenoxy)-benzenesulfonyl]-(1-hydroxycarbamoyl-cyclopentyl)-amino]-propionic acid]
10ng + VEGF
  % Response: 25%
  Corneal Neovascularization (#Positive Response/#Response): 1/4
25ng + VEGF
  % Response: 17%
  Corneal Neovascularization (#Positive Response/#Response): 1/6
50ng + VEGF
  % Response: 0%
  Corneal Neovascularization (#Positive Response/#Response): 0/5
100ng + VEGF
  % Response: 0%
  Corneal Neovascularization (#Positive Response/#Response): 0/5

## CC(C)(NS(=O)(=O)c1ccc(Oc2ccc(F)cc2)cc1)C(=O)NO [2-[4-(4-Fluoro-phenoxy)-benzenesulfonylamino]-N-hydroxy-2-methyl-propionamide]
10ng + VEGF
  % Response: 20%
  Corneal Neovascularization (#Positive Response/#Response): 1/5
25ng + VEGF
  % Response: 17%
  Corneal Neovascularization (#Positive Response/#Response): 1/6
50ng + VEGF
  % Response: 0%
  Corneal Neovascularization (#Positive Response/#Response): 0/5
100ng + VEGF
  % Response: 0%
  Corneal Neovascularization (#Positive Response/#Response): 0/5
